The values below come from PubChem BioAssay AID1053140 (Broad Institute, 2014).

The source made the active and inactive calls.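 How the source made its calls: active means cell killing, with AC50 under 10 µM and within twice the top valid dose; inactive means effect in the opposite direction, and the rest.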 Bounds are passed on as bounds.

The nature of test [1]: viability loss in A549 lung cells – cell-based, ATP luminescence, dry powder, set 16, cytotoxicity control, dose response (AID 1053140). Particulars: A549 viability, CellTiter-Glo ATP luminescence, 72 h.
Test [2] has as its system A549 viability, CellTiter-Glo ATP luminescence, 72 h. The description is as above.

In the case of `CO[C@H]1CN(C)C(=O)c2cc(NC(=O)NC(C)C)ccc2OC[C@H](C)N(C(=O)c2ccccc2)C[C@@H]1C`, the activity change, negative = cytotoxic in test [1] (at 50 µM (top of the series)) is -11.4% (inactive). Same read-out and setting: the result for `CO[C@H]1CN(C)C(=O)c2cc(NC(=O)NC(C)C)ccc2OC[C@H](C)N(C(=O)c2ccc(-c3ccccn3)cc2)C[C@@H]1C` reads -11.3% (inactive). With `CO[C@H]1CN(C)C(=O)c2ccc(NC(=O)NC(C)C)cc2OC[C@H](C)N(Cc2ccc(-c3ccccn3)cc2)C[C@@H]1C`, the activity change, negative = cytotoxic in test [1] (at 26 µM (top of the series)) is 3.22% (inactive). With `CO[C@H]1CN(C)C(=O)c2cc(Nc3c(NC(C)C)c(=O)c3=O)ccc2OC[C@H](C)N(Cc2ccc(-c3ccccn3)cc2)C[C@@H]1C`, the AC50 (in general, the midpoint of the concentration-response curve, whichever way the signal moves) in test [2] was 45.3 µM. With `CO[C@H]1CN(C)C(=O)c2ccc(NC(=O)NC(C)C)cc2OC[C@H](C)N(Cc2ccccc2)C[C@@H]1C`, the activity change, negative = cytotoxic in test [1] (at 26 µM (top of the series)) is 4.59% (inactive). As to `CO[C@H]1CN(C)C(=O)c2cc(NC(=O)NC(C)C)ccc2OC[C@H](C)N(Cc2ccccn2)C[C@@H]1C`, in test [2], the AC50 is > 100 µM (inactive). Take `CO[C@H]1CN(C)C(=O)c2cc(NC(=O)NC(C)C)ccc2OC[C@H](C)NC[C@@H]1C`: the activity change, negative = cytotoxic in test [1] (at 50 µM (top of the series)) was -2.18% (inactive). Turning to `CCCNC(=O)Nc1ccc2c(c1)OC[C@H](C)N(Cc1ccccc1)C[C@H](C)[C@@H](OC)CN(C)C2=O`, the activity change, negative = cytotoxic in test [1] (at 26 µM (top of the series)) was 0.334% (inactive). On to `CO[C@H]1CN(C)C(=O)c2cc(NC(=O)NC(C)C)ccc2OC[C@H](C)N(Cc2ccncc2)C[C@@H]1C`, for which, in test [1] (at 50 µM (top of the series)), the activity change, negative = cytotoxic is 4.36% (inactive).

`CO[C@H]1CN(C)C(=O)c2cc(Nc3ncccn3)ccc2OC[C@H](C)N(Cc2ccc(-c3ccccn3)cc2)C[C@@H]1C`: the AC50 in test [2] is > 100 µM (inactive).

For the compound `CO[C@H]1CN(C)C(=O)c2cc(N)ccc2OC[C@H](C)N(Cc2ccc(-c3ccccn3)cc2)C[C@@H]1C`, in test [2], the AC50 was > 100 µM (inactive). For `CO[C@H]1CN(C)C(=O)c2cc(NC(=O)NC(C)C)ccc2OC[C@H](C)N(Cc2cccnc2)C[C@@H]1C`, the activity change, negative = cytotoxic in test [1] (at 50 µM (top of the series)) was 6.13% (inactive). Still for that read-out and setting: under `CO[C@H]1CN(C)C(=O)c2cc(NC(=O)NC(C)C)ccc2OC[C@H](C)N(Cc2cncnc2)C[C@@H]1C` stands -6.71% (inactive).

Turning to `CO[C@H]1CN(C)C(=O)c2cc(NC(=O)NC(C)C)ccc2OC[C@H](C)N(C(=O)Nc2ccc(-c3ccccn3)cc2)C[C@@H]1C`, the AC50 in test [2] is > 100 µM (inactive).

Turning to `CO[C@H]1CN(C)C(=O)c2cc(Nc3c(NC4CCCCC4)c(=O)c3=O)ccc2OC[C@H](C)N(Cc2ccc(-c3ccccn3)cc2)C[C@@H]1C`, in test [2], the AC50 is 36.8 µM. Turning to `CCCNC(=O)Nc1ccc2c(c1)OC[C@H](C)N(Cc1ccc(-c3ccccn3)cc1)C[C@H](C)[C@@H](OC)CN(C)C2=O`, in test [1] (at 26 µM (top of the series)), the activity change, negative = cytotoxic is -9.23% (inactive). Regarding `CO[C@H]1CN(C)C(=O)c2cc(Nc3c(NC4CCCC4)c(=O)c3=O)ccc2OC[C@H](C)N(Cc2ccc(-c3ccccn3)cc2)C[C@@H]1C`, the AC50 in test [2] was > 100 µM (inactive). The same measure, in the same setting: under `CO[C@H]1CN(C)C(=O)c2cc(NC(=O)C(C)C)ccc2OC[C@H](C)N(Cc2ccc(-c3ccccn3)cc2)C[C@@H]1C` stands > 100 µM (inactive); under `CO[C@H]1CN(C)C(=O)c2cc(NC(=O)NC(C)C)ccc2OC[C@H](C)N(Cc2ccc(-c3cncnc3)cc2)C[C@@H]1C`, > 100 µM (inactive).

`CCCC(=O)Nc1ccc2c(c1)OC[C@H](C)N(Cc1ccccc1)C[C@H](C)[C@@H](OC)CN(C)C2=O`: in test [1] (at 26 µM (top of the series)), the activity change, negative = cytotoxic is -0.093% (inactive).

`CO[C@H]1CN(C)C(=O)c2cc(NC(=O)NC(C)C)ccc2OC[C@H](C)N(Cc2ccc(F)cc2)C[C@@H]1C`: in test [1] (at 50 µM (top of the series)), the activity change, negative = cytotoxic was -3.88% (inactive). In the case of `CCCC(=O)Nc1ccc2c(c1)OC[C@H](C)N(Cc1ccc(-c3ccccn3)cc1)C[C@H](C)[C@@H](OC)CN(C)C2=O`, the activity change, negative = cytotoxic in test [1] (at 26 µM (top of the series)) was 6.08% (inactive). Take `CO[C@H]1CN(C)C(=O)c2cc(NC(=O)OC(C)C)ccc2OC[C@H](C)N(Cc2ccc(-c3ccccn3)cc2)C[C@@H]1C`: in test [2], the AC50 is > 100 µM (inactive). Same read-out and setting: under `CO[C@H]1CN(C)C(=O)c2cc(Nc3c(NC4CC4)c(=O)c3=O)ccc2OC[C@H](C)N(Cc2ccc(-c3ccccn3)cc2)C[C@@H]1C` stands 25.2 µM; under `CCC(CC)Nc1c(Nc2ccc3c(c2)C(=O)N(C)C[C@H](OC)[C@@H](C)CN(Cc2ccc(-c4ccccn4)cc2)[C@@H](C)CO3)c(=O)c1=O`, 43.7 µM; under `CO[C@H]1CN(C)C(=O)c2cc(NC(=O)NC(C)C)ccc2OC[C@H](C)N(Cc2ccc(-c3cccnc3)cc2)C[C@@H]1C`, 45.7 µM.
